The results in this text go back to US12097189B1, “Pharmaceutical composition for modified release” (ASTELLAS PHARMA INC., priority 2024, dated 2024).

Data set [1] in a line: Elimination half-life of compound A. To be noted: in vivo; read-out: elimination half-life (T1/2). The source says: Taking into consideration the results of the clinical trial described above, the present inventors conducted intensive studies to design the formulation by paying attention to the control of a release rate of the drug from a formulation to the extent that the release is not affected by food intake or the like, rather than the addition of release control.

A short description of data set [2]: Pharmacokinetics (PK) test of immediate release formulation (capsule formulation) in human: Cmax and heart rate. Format: in vivo. To be noted: healthy subjects; immediate release capsules, 0.1 mg to 340 mg. As for the experimental part: An immediate release formulation (capsule formulation) containing compound A was administered to healthy subjects in a fasted state, before 30 min from the intake of a meal, or after 30 min from the meal, and the drug concentration in the plasma was measured. The immediate release formulations (capsule formulations) containing 0.1 mg, 1 mg, 5 mg, 20 mg, and 80 mg of the compound A were used in combinations as needed so that the dose of compound A became 0.1 mg, 1 mg, 3 mg, 10 mg, 30 mg, 100 mg, 160 mg, 240 mg, and 340 mg.

Take `Nc1nc(CC(=O)Nc2ccc(CCNC[C@H](O)c3ccccc3)cc2)cs1` [compound A, (R)-2-(2-aminothiazol-4-yl)-4′-[2-[(2-hydroxy-2-phenylethyl)amino]ethyl]acetic acid anilide]: the half-life in data set [1] fell in the range of 18 to 24 h. Moreover, the “relation between maximum plasma concentration (Cmax) and increase in heart rate from the base line” value in data set [2] is “a positive correlation was observed”.
